Experimental data taken from patent US11014902B2, “MYC G-quadruplex stabilizing small molecules and their use” (The United States of America, as represented by the …, priority 2015, dated 2021).

How the values were obtained:
[1] = biological target: c-MYC G4 DNA (biotin-labeled Pu22 G-quadruplex); experiment: Surface plasmon resonance (SPR); type: binding; details: SPR, 25° C.; read-out: equilibrium dissociation constant (Kd)
Method: In order to quantitatively assess the binding affinity of Compound 1 with the c-MYC G4, surface plasmon resonance (SPR) experiments (De Crescenzo, et al., Cell Mol Bioeng 2008, 1, 204) were performed using a biotinylated c-MYC G4 oligonucleotide. The oligonucleotide was immobilized to a streptavidin-coated chip, and binding was measured as a function of concentration. (FIG. 2). […] Furthermore, Compound 1 interacts with quadruplex DNA through a reversible binding interaction, and rapid, complete dissociation can be observed in the sensogram (FIG. 2C).
SPR experiments were performed with a Biacore T200 (GE Healthcare). […] The c-MYC DNA was then captured (FC2: 1245 Ru) on a Series S Sensor CM5 Chip (GE Healthcare) with amine-coupled Neutravidin (FC1: 4466 Ru, FC2: 5458 Ru). Single Cycle Kinetics (SCK) experiments were carried out with five injections of increasing concentration of analyte solution, which was prepared by a three-fold serial dilution of compound with buffer (10 mM Tris pH 7.5, 100 mM KCl, 3 mM EDTA) containing 3% DMSO. Binding analysis was conducted at a flow rate of 30 μL/min at 25° C. In each run, the association phase and the subsequent dissociation phase were monitored for 1 min and 10 min, respectively. Prior to each compound injection, three buffer injections were made. […]

[2] = system: mutant sequence incapable of G4 formation; type: biochemical; details: concentrations up to 100 μM
[3] = Stability study in culture media (LC/MS); type: physicochemical; details: RPMI-1640, LC/MS, up to 72 h
Source text: Having established the reversible binding of Compound 1 to quadruplex DNA and selective quadruplex-dependent silencing of c-Myc, one consideration that remained was the presence of a benzylaminophenol functional group in Compound 1. It has previously been reported that compounds containing this functional group can have the propensity to eject amines, form an o-quinone methide, and alkylate proteins (Weinert, et al., J Am Chem Soc 2006, 128, 11940; Herzig, et al., J Org Chem 2006, 71, 4130; McLean, et al., Bioorg Med Chem Lett 2009, 19, 6717). To assess whether Compound 1 was undergoing this reactivity, a small series of analogs was prepared. In FIG. 6C, compounds lacking the phenol or amino group were prepared and evaluated. […] Additionally, the stability of Compound 1 was evaluated (see FIG. 7). […] Additionally, the putative hydrolysis products arising from quinone methide formation were not observed at any time by LC/MS.
Compound 1 (10 μL of 1 mM DMSO solution) was added to 490 μL RPMI-1640 culture media. After 1 min, 25 h, 48 h, and 72 h, 100 μL of this solution was diluted into 100 μL acetonitrile. The mixture was centrifuged at 5500 rpm for 1 min and the supernatant was removed from the pellet. […]
Compound 1 (10 μL of 1 mM DMSO solution) was added to 490 μL RPMI-1640 culture media. […] The mass corresponding to Compound 1 (M+H^+=393) was extracted and the chromatogram evaluated. […]

[4] = system: c-Myc protein in H157 cells; experiment: c-Myc protein expression by Western blot, H157; type: cell-based, human; details: 10 μM
Method: The effect of Compound 23 on the expression of c-Myc protein in the human lung cancer cell lines H1299 and H157 was also assayed. H1299 and H157 cells were treated with 10 μM Compound 23 and c-Myc protein expression levels quantified by Western blot. In Compound 23-treated H1299 cells, c-Myc protein expression levels were approximately 55% compared to untreated control cells. In Compound 23-treated H157 cells, c-Myc protein expression levels were approximately 74% compared to untreated control cells.

[5] = Pharmacokinetic evaluation, blood plasma levels by mass spectrometry; type: in vivo; details: single injection 19 mg/kg, female nude mice; for Tmax / half-life: mouse
Method: The blood plasma levels of Compound 23 after a single IP or IV injection (19 mg/kg) in female nude mice were determined by mass spectrometry (see FIG. 12 and the following table).

[6] = system: c-MYC expression in L363 xenograft tumors; experiment: Pharmacodynamic evaluation in L363 subcutaneous xenografts (western blot); type: in vivo; details: single dose 19 mg/kg or 38 mg/kg IP; tumors harvested 2 and 8 hours; nude mice with L363 xenografts
Method: The capacity of Compound 23 to inhibit c-MYC expression in tumor was evaluated in nude mice bearing subcutaneous xenografts of the human multiple myeloma cell line L363. In this assay, tumors from two tumor-bearing mice were harvested 2 and 8 hours after a single dose of Compound 23 at 19 mg/kg or 38 mg/kg (administered IP).

Structure (SMILES)	Kd [1]	effect on PCR amplification [2]	stability in culture media [3]	c-Myc protein expression levels compared to untreated control cells [4]	Kel ([5]; IP)	Kel ([5]; IV)	Tmax ([5]; IP)	half-life ([5]; IP)	Tmax ([5]; IV)	half-life ([5]; IV)	c-MYC expression levels in tumors compared to vehicle control tumors [6]
Cc1ccc(NC(=O)c2c(C)oc3ccc(O)c(CN4CCCCCC4)c23)cc1 [Compound 1]	4.5 ± 1.4 µM	no effect	persisted in culture media over a period of 72 h								
Cc1oc2ccc(O)c(CN3CCCCCC3)c2c1C(=O)Nc1ccc(C(F)(F)F)cc1 [Compound 23]				approximately 74%	0.277 h⁻¹	0.277 h⁻¹	1 h	6.5 h	0.38 h	2.25 h	decreased c-MYC expression levels
